Values of other authors, collected in US12419848B2, “Treatment of hyperinflammatory syndrome” (priority 2020, dated 2025).
pEC50: −log10 of the molar value.

Assays:
P2X7R = target: T1, P2X7R (Homo sapiens, UniProt Q99572); conditions: read-out: EC50 to activate P2X7R; cited from earlier work
T1 sequence (Q99572 1-595): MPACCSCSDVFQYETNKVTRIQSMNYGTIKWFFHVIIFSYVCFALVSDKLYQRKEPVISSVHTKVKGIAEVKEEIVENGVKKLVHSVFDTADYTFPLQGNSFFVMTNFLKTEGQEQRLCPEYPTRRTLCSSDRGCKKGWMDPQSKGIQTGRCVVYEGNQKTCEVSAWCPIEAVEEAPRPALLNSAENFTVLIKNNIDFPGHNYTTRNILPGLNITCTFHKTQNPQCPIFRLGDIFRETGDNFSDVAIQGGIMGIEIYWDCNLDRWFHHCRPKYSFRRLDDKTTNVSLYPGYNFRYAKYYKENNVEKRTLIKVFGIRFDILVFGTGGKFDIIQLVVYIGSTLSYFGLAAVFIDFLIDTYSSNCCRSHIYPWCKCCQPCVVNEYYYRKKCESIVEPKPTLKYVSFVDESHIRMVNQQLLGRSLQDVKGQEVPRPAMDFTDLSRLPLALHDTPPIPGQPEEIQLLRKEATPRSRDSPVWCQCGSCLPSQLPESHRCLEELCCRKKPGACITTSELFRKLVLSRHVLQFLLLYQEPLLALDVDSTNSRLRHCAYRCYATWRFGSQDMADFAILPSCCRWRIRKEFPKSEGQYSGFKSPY

P1 receptors = conditions: cited from earlier work

Row | Structure (SMILES) | pEC50 (P2X7R) | EC50 (extracellular concentration for half maximal effect) (P1 receptors)
1 | Nc1ncnc2c1ncn2[C@@H]1O[C@H](COP(=O)(O)OP(=O)(O)OP(=O)(O)O)[C@@H](O)[C@H]1O [ATP] | < 3.00 | 
2 | Nc1ncnc2c1ncn2[C@@H]1O[C@H](CO)[C@@H](O)[C@H]1O [adenosine] |  | nanomolar range
